In paper PMC11995724, “Antibiotic target discovery by integrated phenotypic and activity-based profiling of electrophilic fragments” (Cell chemical biology, 2025):
Where a name gives a salt, the structure may show the parent alone.

Assay: in vitro
Conditions: human, hek293t cells

SMILES	viability at 48 h, 25 µM [%]
O=C(CCl)NCC1CN(Cc2ccccc2)CCO1 (stereo not drawn) [4-H18, N-[(4-benzylmorpholin-2-yl)methyl]-2-chloroacetamide]	87.2
O=C(CCl)N1CCC(OCc2ccccc2)CC1 [4-H19, 1-[4-(benzyloxy)piperidin-1-yl]-2-chloroethan-1-one]	0.757
Cn1ccnc1C(NC(=O)CCl)c1ccccc1 (stereo not drawn) [4-H20, 2-chloro-N-[(1-methyl-1H-imidazol-2-yl)(phenyl)methyl]acetamide]	44.4
Cc1ccc(CNC(=O)c2ccccc2NC(=O)CCl)cc1 [4-H21, 2-(2-chloroacetamido)-N-[(4-methylphenyl)methyl]benzamide]	105
O=C(CCl)NOCc1ccccc1 [4-H22, N-(benzyloxy)-2-chloroacetamide]	63.3
Cc1ccc(Sc2ccc(NC(=O)CCl)cc2)c(C)c1 [4-I03, 2-chloro-N-{4-[(2,4-dimethylphenyl)sulfanyl]phenyl}acetamide]	0.0415
COc1cc(NC(=O)C(C)Cl)cc(OC)c1 (stereo not drawn) [4-I04, 2-chloro-N-(3,5-dimethoxyphenyl)propanamide]	81.7
CC(C)c1ccc(C(C)NC(=O)CCl)cc1 (stereo not drawn) [4-I05, 2-chloro-N-{1-[4-(propan-2-yl)phenyl]ethyl}acetamide]	1.47
Cc1ccc(S(=O)(=O)N(C)C)cc1NC(=O)C(C)Cl (stereo not drawn) [4-I06, 2-chloro-N-[5-(dimethylsulfamoyl)-2-methylphenyl]propanamide]	69.7
O=C(CCl)Nc1ccc(F)cc1[N+](=O)[O-] [4-I07, 2-chloro-N-(4-fluoro-2-nitrophenyl)acetamide]	0.642
CCc1ccccc1NC(=O)CNC(=O)CCl [4-I08, 2-chloro-N-{[(2-ethylphenyl)carbamoyl]methyl}acetamide]	0.8
O=C(CCl)Nc1ccc(Cl)c(C(F)(F)F)c1 [4-I09, 2-chloro-N-[4-chloro-3-(trifluoromethyl)phenyl]acetamide]	0.299
CC(Cl)C(=O)NCC1CCCCC1 (stereo not drawn) [4-I10, 2-chloro-N-(cyclohexylmethyl)propanamide]	90.9
O=C(CCl)NCC1(c2ccc3c(c2)OCCO3)CCCC1 [4-I11, 2-chloro-N-{[1-(2,3-dihydro-1,4-benzodioxin-6-yl)cyclopentyl]methyl}acetamide]	0.867
CC(Cl)C(=O)Nc1cc2c(cc1Cl)C(=O)c1ccccc1C2=O (stereo not drawn) [4-I12, 2-chloro-N-(3-chloro-9,10-dioxo-9,10-dihydroanthracen-2-yl)propanamide]	79.4
O=C(CCl)N(Cc1ccc(F)cc1)C1CCCCC1 [4-I13, 2-chloro-N-cyclohexyl-N-[(4-fluorophenyl)methyl]acetamide]	0.726
COc1ccc(NC(=O)C(C)Cl)cc1Cl (stereo not drawn) [4-I14, 2-chloro-N-(3-chloro-4-methoxyphenyl)propanamide]	90.7
O=C(CCl)Nc1cc(C2CC2)nn1-c1ccccc1 [4-I15, 2-chloro-N-(3-cyclopropyl-1-phenyl-1H-pyrazol-5-yl)acetamide]	1.44
CNC(=O)CC(NC(=O)CCl)c1ccc(F)cc1F (stereo not drawn) [4-I16, 3-(2-chloroacetamido)-3-(2,4-difluorophenyl)-N-methylpropanamide]	18.5

SMILES	viability at 48 h, 25 µM [%]
O=C(CCl)NC(=O)Nc1ccccc1 [4-I17, 3-(2-chloroacetyl)-1-phenylurea]	64
CC(Cl)C(=O)Nc1ccc([N+](=O)[O-])cc1 (stereo not drawn) [4-I18, 2-chloro-N-(4-nitrophenyl)propanamide]	86.7
CCN(CC(=O)NC1CCS(=O)(=O)C1)C(=O)CCl (stereo not drawn) [4-I19, 2-chloro-N-{[(1,1-dioxo-1lambda6-thiolan-3-yl)carbamoyl]methyl}-N-ethylacetamide]	1.33
O=C(CCl)N1N=C(c2ccccc2)CC1c1ccccc1 (stereo not drawn) [4-I20, 2-chloro-1-(3,5-diphenyl-4,5-dihydro-1H-pyrazol-1-yl)ethan-1-one]	0.141
COc1ccc(NC(=O)CCl)c([N+](=O)[O-])c1 [4-I21, 2-chloro-N-(4-methoxy-2-nitrophenyl)acetamide]	35.6
Cc1ccc(C2CC(c3cccs3)=NN2C(=O)CCl)cc1 (stereo not drawn) [4-I22, 2-chloro-1-[5-(4-methylphenyl)-3-(thiophen-2-yl)-4,5-dihydro-1H-pyrazol-1-yl]ethan-1-one]	0.369
O=C(CCl)Nc1cc(C2CCCC2)nn1-c1ccccc1 [4-J03, 2-chloro-N-(3-cyclopentyl-1-phenyl-1H-pyrazol-5-yl)acetamide]	0.358
O=C(CCl)Nc1cc(C(F)(F)F)ccc1Cl [4-J04, 2-chloro-N-[2-chloro-5-(trifluoromethyl)phenyl]acetamide]	1.3
O=C(CCl)Nc1ccccc1SCc1ccccc1 [4-J05, N-[2-(benzylsulfanyl)phenyl]-2-chloroacetamide]	0.437
O=C(CCl)Nc1ccccc1C(=O)c1ccccc1 [4-J06, N-(2-benzoylphenyl)-2-chloroacetamide]	1.12
O=C(CCl)N1CCN(S(=O)(=O)c2ccc([N+](=O)[O-])cc2)CC1 [4-J07, 2-chloro-1-[4-(4-nitrobenzenesulfonyl)piperazin-1-yl]ethan-1-one]	-0.414
CN(C)S(=O)(=O)c1cccc(NC(=O)CCl)c1 [4-J08, 2-chloro-N-[3-(dimethylsulfamoyl)phenyl]acetamide]	0.946
O=C(CCl)Nc1ccc(Oc2ccccc2)cc1 [4-J09, 2-chloro-N-(4-phenoxyphenyl)acetamide]	-0.178
O=C(CCl)Nc1ccc(OC(F)F)cc1 [4-J10, 2-chloro-N-[4-(difluoromethoxy)phenyl]acetamide]	1.07
COc1ccc(C(NC(=O)CCl)c2ccccc2)cc1 (stereo not drawn) [4-J11, 2-chloro-N-[(4-methoxyphenyl)(phenyl)methyl]acetamide]	0.827
CCc1cc(SC#N)cc(CC)c1NC(=O)CCl [4-J12, 2-chloro-N-[4-(cyanosulfanyl)-2,6-diethylphenyl]acetamide]	84.8
CC(Cl)C(=O)NC(=O)NC1CCS(=O)(=O)C1 (stereo not drawn) [4-J13, 3-(2-chloropropanoyl)-1-(1,1-dioxo-1lambda6-thiolan-3-yl)urea]	94.7
O=C(CCl)NC(c1ccccc1)c1cccs1 (stereo not drawn) [4-J14, 2-chloro-N-[phenyl(thiophen-2-yl)methyl]acetamide]	1.95
Cc1ccc(NC(=O)C(C)Cl)cc1 (stereo not drawn) [4-J15, 2-chloro-N-(4-methylphenyl)propanamide]	92.1

SMILES	viability at 48 h, 25 µM [%]
CCOc1ccc(NC(=O)CCl)cc1S(=O)(=O)N1CCCC1 [4-J16, 2-chloro-N-[4-ethoxy-3-(pyrrolidine-1-sulfonyl)phenyl]acetamide]	1.41
CC(Cl)C(=O)Nc1ccc([N+](=O)[O-])cc1Cl (stereo not drawn) [4-J17, 2-chloro-N-(2-chloro-4-nitrophenyl)propanamide]	85.5
O=C(CCl)N(Cc1ccco1)C12CC3CC(CC(C3)C1)C2 [4-J18, N-(adamantan-1-yl)-2-chloro-N-[(furan-2-yl)methyl]acetamide]	1.5
COC(=O)c1c(NC(=O)CCl)sc2c1CCC(C(C)(C)C)C2 (stereo not drawn) [4-J19, methyl 6-tert-butyl-2-(2-chloroacetamido)-4,5,6,7-tetrahydro-1-benzothiophene-3-carboxylate]	69.6
O=C(CN1CCN(C(=O)CCl)CC1)Nc1ccc(F)cc1 [4-J20, 2-[4-(2-chloroacetyl)piperazin-1-yl]-N-(4-fluorophenyl)acetamide hydrochloride]	1.34
O=C(CCl)NCCc1nc2c(s1)CCCCC2 [4-J21, 2-chloro-N-(2-{4H,5H,6H,7H,8H-cyclohepta[d][1,3]thiazol-2-yl}ethyl)acetamide]	15
CN(C)S(=O)(=O)c1ccccc1CNC(=O)CCl [4-J22, 2-chloro-N-{[2-(dimethylsulfamoyl)phenyl]methyl}acetamide]	1.7
Cc1ccc(Oc2ccc(NC(=O)CCl)cc2)cc1 [4-K03, 2-chloro-N-[4-(4-methylphenoxy)phenyl]acetamide]	0.0354
Cc1cc(C)cc(-c2cc(NC(=O)CCl)n(-c3ccccc3)n2)c1 [4-K04, 2-chloro-N-[3-(3,5-dimethylphenyl)-1-phenyl-1H-pyrazol-5-yl]acetamide]	-0.323
CN(CC(=O)Nc1ccccc1C(F)(F)F)C(=O)CCl [4-K05, 2-chloro-N-methyl-N-({[2-(trifluoromethyl)phenyl]carbamoyl}methyl)acetamide]	0.506
Cc1ccc2sc(N(Cc3ccccc3)C(=O)CCl)nc2c1C [4-K06, N-benzyl-2-chloro-N-(4,5-dimethyl-1,3-benzothiazol-2-yl)acetamide]	-0.0749
CCN(CC)S(=O)(=O)c1ccc(NC(=O)CCl)cc1 [4-K07, 2-chloro-N-[4-(diethylsulfamoyl)phenyl]acetamide]	0.364
CC(C)OC(=O)c1ccc(NC(=O)C(C)Cl)cc1 (stereo not drawn) [4-K08, propan-2-yl 4-(2-chloropropanamido)benzoate]	76.3
O=C(CCl)Nc1cc(Cl)cc(Cl)c1 [4-K09, 2-chloro-N-(3,5-dichlorophenyl)acetamide]	1.41
CC(Cl)C(=O)Nc1ccc2c(c1)OCCCO2 (stereo not drawn) [4-K10, 2-chloro-N-(3,4-dihydro-2H-1,5-benzodioxepin-7-yl)propanamide]	85.4
CC(C)C(NC(=O)CCl)c1ccccc1 (stereo not drawn) [4-K11, 2-chloro-N-(2-methyl-1-phenylpropyl)acetamide]	3.98
COc1cc([N+](=O)[O-])ccc1NC(=O)C(C)Cl (stereo not drawn) [4-K12, 2-chloro-N-(2-methoxy-4-nitrophenyl)propanamide]	91.3
CC(C)N(C)S(=O)(=O)c1ccc(NC(=O)CCl)cc1 [4-K13, 2-chloro-N-{4-[methyl(propan-2-yl)sulfamoyl]phenyl}acetamide]	1.64
CC(Cl)C(=O)NCCc1ccccc1 (stereo not drawn) [4-K14, 2-chloro-N-(2-phenylethyl)propanamide]	102
